Measured values: paper PMC9095880, “AIMP2-DX2 provides therapeutic interface to control KRAS-driven tumorigenesis” (Nature Communications, 2022)

Biological target: T1, AIMP2 (Homo sapiens, UniProt Q13155)
T1 construct: purified AIMP2, in vitro pull-down
T1 sequence (Q13155 1-320): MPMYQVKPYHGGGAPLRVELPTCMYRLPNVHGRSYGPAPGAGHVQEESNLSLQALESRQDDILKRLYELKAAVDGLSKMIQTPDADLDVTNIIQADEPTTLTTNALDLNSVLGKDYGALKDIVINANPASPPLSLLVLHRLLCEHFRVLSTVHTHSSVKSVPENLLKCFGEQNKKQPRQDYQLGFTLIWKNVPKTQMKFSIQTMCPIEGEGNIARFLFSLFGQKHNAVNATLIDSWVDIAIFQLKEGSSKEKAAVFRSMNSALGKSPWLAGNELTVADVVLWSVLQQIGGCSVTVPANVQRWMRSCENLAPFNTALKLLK
Experiment: in vitro pull-down with purified AIMP2
Details: no binding to cellular AIMP2 in immunoprecipitation

Compound: COc1ccc(-c2ccc(CN(C(=O)c3cnc4ccccc4n3)c3ccccc3F)s2)cc1C [BC-DXI-32982]
- in vitro pull-down with purified AIMP2: DXI showed binding to the purified AIMP2 in an in vitro pull-down assay
